Assay results reported in PubChem BioAssay AID248 (DTP/NCI, 2004).
Inconclusive results and toxic doses are left out. No stated cut-off is given here; in the data, active means T/C of 150% or more; inactive means T/C below 125%.

Test system: L1210 leukemia ip in BDF1 mice, survival T/C
Assay: NCI In Vivo Anticancer Drug Screen. Data for tumor model L1210 Leukemia (intraperitoneal) in B6D2F1 (BDF1) mice
Conditions: endpoint: mean survival time, higher = longer survival
Method in brief: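 Transplanted-tumor mice were given test agent; controls received vehicle only. Survival readings from the two groups were divided (treated over control).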

[1] = dose: 100.0 mg/kg/injection, schedule: Q01DX009 (ip), vehicle: saline
[2] = dose: 100.0 mg/kg/injection, schedule: Q04DX003 (ip), vehicle: saline
[3] = dose: 200.0 mg/kg/injection, schedule: Q01DX009 (ip), vehicle: saline
[4] = dose: 200.0 mg/kg/injection, schedule: Q04DX003 (ip), vehicle: saline
[5] = dose: 400.0 mg/kg/injection, schedule: Q01DX009 (ip), vehicle: saline
[6] = dose: 400.0 mg/kg/injection, schedule: Q04DX003 (ip), vehicle: saline
[7] = dose: 75.0 mg/kg/injection, schedule: Q01DX001 (ip), vehicle: saline
[8] = dose: 150.0 mg/kg/injection, schedule: Q01DX001 (ip), vehicle: saline
[9] = dose: 300.0 mg/kg/injection, schedule: Q01DX001 (ip), vehicle: saline
[10] = dose: 50.0 mg/kg/injection, schedule: Q01DX009 (ip), vehicle: saline with Tween-80
[11] = dose: 100.0 mg/kg/injection, schedule: Q01DX009 (ip), vehicle: saline with Tween-80
[12] = dose: 200.0 mg/kg/injection, schedule: Q01DX009 (ip), vehicle: saline with Tween-80
[13] = dose: 100.0 mg/kg/injection, schedule: Q04DX003 (ip), vehicle: saline with Tween-80
[14] = dose: 100.0 mg/kg/injection, schedule: Q01DX001 (ip), vehicle: saline
[15] = dose: 200.0 mg/kg/injection, schedule: Q01DX001 (ip), vehicle: saline

Measured: T/C

CC(N)C(=O)NCC(=O)NCC(=O)O (centres undefined)
inactive: [1] 103 % of control | [2] 100 % of control | [3] 96 % of control | [4] 96 % of control | [5] 98 % of control | [6] 94 % of control

Cc1ccc(Cl)cc1N=C=S
inactive: [7] 100 % of control | [8] 101 % of control | [9] 106 % of control

COc1cc2c(cc1O)C(CCc1cc(OC)c(OC)c(OC)c1)=[N+](C)CC2
inactive: dose: 25.0 mg/kg/injection, schedule: Q04DX002 (ip), vehicle: Klucel (hydroxypropylcellulose) (HPC) 101 % of control | dose: 50.0 mg/kg/injection, schedule: Q04DX002 (ip), vehicle: Klucel (hydroxypropylcellulose) (HPC) 101 % of control | dose: 100.0 mg/kg/injection, schedule: Q04DX002 (ip), vehicle: Klucel (hydroxypropylcellulose) (HPC) 105 % of control

COC(=O)C1(C)CCCC2(C)C1CCC13OCC(CC21)C(O)(C(C)C)C3O (centres undefined)
inactive: [10] 97 % of control | [11] 97 % of control | [12] 90 % of control

C/C=C/C1N(C)CCCN1C
inactive: dose: 25.0 mg/kg/injection, schedule: Q01DX009 (ip), vehicle: saline with Tween-80 97 % of control | dose: 25.0 mg/kg/injection, schedule: Q04DX003 (ip), vehicle: saline with Tween-80 102 % of control | [10] 98 % of control | dose: 50.0 mg/kg/injection, schedule: Q04DX003 (ip), vehicle: saline with Tween-80 93 % of control | [13] 91 % of control

CC(=O)c1ccc[n+](C)c1
inactive: dose: 50.0 mg/kg/injection, schedule: Q01DX009 (ip), vehicle: saline 102 % of control | [1] 100 % of control | [3] 91 % of control

Cc1cnc(C#N)c(Cl)n1
inactive: [11] 95 % of control | [13] 92 % of control | [12] 101 % of control | dose: 200.0 mg/kg/injection, schedule: Q04DX003 (ip), vehicle: saline with Tween-80 98 % of control | dose: 400.0 mg/kg/injection, schedule: Q01DX009 (ip), vehicle: saline with Tween-80 88 % of control | dose: 400.0 mg/kg/injection, schedule: Q04DX003 (ip), vehicle: saline with Tween-80 97 % of control

Cn1nc(-c2ccccc2)[n+](C)n1
inactive: [7] 104 % of control | [8] 100 % of control | [9] 100 % of control

O=C1C=C(Nc2ccccc2)C(=O)N1c1ccccc1
inactive: [14] 95 % of control | [15] 95 % of control

O=C(O)/C=C/C(=O)Nc1ccc(N=Nc2ccccc2)cc1
inactive: [10] 101 % of control | [11] 92 % of control | [12] 89 % of control

CCOC(=N)c1ccc(C(=O)OCCOC)cc1
inactive: [14] 97 % of control | [15] 97 % of control | dose: 400.0 mg/kg/injection, schedule: Q01DX001 (ip), vehicle: saline 97 % of control

N#CC(c1ccc(Cl)cc1)c1ccccn1 (centres undefined)
inactive: dose: 75.0 mg/kg/injection, schedule: Q04DX003 (ip), vehicle: other 96 % of control | dose: 150.0 mg/kg/injection, schedule: Q04DX003 (ip), vehicle: other 96 % of control | dose: 300.0 mg/kg/injection, schedule: Q04DX003 (ip), vehicle: other 94 % of control

O=S(=O)(c1ccc(NC(=S)Oc2ccccc2)cc1)c1ccc(NC(=S)Oc2ccccc2)cc1
inactive: [14] 104 % of control | [15] 104 % of control

O=C(O)CNCc1ccccc1
inactive: [2] 102 % of control | [4] 96 % of control | [6] 96 % of control

O=[N+]([O-])c1cccc(P(=O)(c2cccc([N+](=O)[O-])c2)c2cccc([N+](=O)[O-])c2)c1
inactive: [1] 101 % of control | [2] 93 % of control | [3] 101 % of control | [4] 104 % of control | [5] 95 % of control | [6] 106 % of control
